Tests used:
MUC12 = experiment: qPCR of MUC gene expression in Caco-2:HT-29-MTX 75:25 coculture; type: cell-based, human; conditions: 24 h
Protocol: (§1) Caco-2:HT-29-MTX 75:25 coculture: This co-culture model was used to simulate the human colonic epithelium (Hilgendorh C, 2000). The Caco-2 cells (passage 8) and the HT29-MTX cells (passage 9) were combined at a 75:25 ratio in DMEM with 10% FBS. The combined cells (6.4×10^4 cells/ml) were seeded into 25 cm^2 in a total of 5 ml per flask. The coculture was incubated at 37° C. in a 5% CO2 atmosphere with medium refreshed every 48 h. At 15 days post seeding, the coculture monolayer was washed three times in DMEM and replaced with 5 ml of pre-warmed test solution, and then incubated for 24 h.
(§2) Before RNA extraction, cells were collected by centrifugation at 5,000 g for 5 min, 4° C. the cell pellet was washed three times in ice-cold PBS followed by resuspension in 500 μl of ice-cold PBS. The total RNA of 2×10^6 cells per sample was extracted using a PureLink RNA mini kit with 1.5 μg of RNA (with A260/A280 ratio between 2.00 and 2.20) reverse-transcribed into cDNA using a High Capacity cDNA RT kit. The expression of the genes of interest was quantified using the PowerUp SYBR green Master mix. In brief, triplicate qPCR reactions was set up using 20 ng cDNA and 500 nM primers in a MicroAmp optical 384-well reaction plates using a Biomek-4000 automated liquid handler (Beckman Coulter, Brea, CA, USA). Amplification was run in a ViiA7 Real-Time PCR system (Thermo Fisher Scientific) at the following conditions: 95° C. for 20 seconds followed by 40 cycles of 95° C. for 1 second and 60° C. for 20 seconds; and a melt curve stage: 95° C., 15 s; 60° C., 60 s. The results of qPCR were analysed with the 2-ΔΔCT method as previously described using the QuantStudio Software V1.3 (Applied Biosystems). Relative gene expression values were normalized by using GAPDH and 18S as the multiple endogenous reference genes.
(§3) A 75:25 caco-2/HT-29 co-culture was established as previously described herein and the effect of a 24 h exposure to bromelain, threonine, sodium butyrate, vitamin D3 and the two different GaRP formulations on the expression of the following MUC genes was investigated using qPCR. At the end of the 24 h treatment, the supernatant in the 25 cm^2 flasks was collected and the coculture monolayer was trypsinised as previously described herein.
as §1, with “This” for “Caco-2:HT-29-MTX 75:25 coculture: This”, “epithelium.” for “epithelium (Hilgendorh C, 2000).”
(§4) The test solutions of cholecalciferol (VD3) and L-Threonine (L-Thr) (Sigma-Aldrich) in culture medium were prepared one day before the treatment. At 15 days post seeding, the coculture monolayer was washed three times at hourly interval with culture medium, which was then replaced with 5 ml of pre-warmed test solution, and then incubated for 24 h.
(§5) At the end of the 24 h treatment, the supernatant in the 25 cm^2 flasks was collected and the coculture monolayer was trypsinised as previously described. Cells were collected by centrifugation at 5,000 g for 5 min, 4° C. After washed three times with ice-cold PBS, the cells were resuspended in 500 μl of ice-cold PBS. The total RNA of 2×10^6 cells per sample was extracted using the PureLink RNA mini kit (Invitrogen). For real-time PCR analysis, 1.5 μg of RNA (with A260/A280 ratio between 2.00 and 2.20) was reverse transcribed into cDNA using the High Capacity cDNA RT kit (Applied Biosystems, Foster City, CA, USA).
(§6) The expression of the human MUC2 and MUC7 genes in the Caco-2:HT-29-MTX 75:25 coculture was quantified using the PowerUp SYBR green Master mix (Applied Biosystems). […]

MUC13 = experiment: as above; type: cell-based, human; conditions: 24 h
Protocol: as §1, §2, §3
as §1, with “This” for “Caco-2:HT-29-MTX 75:25 coculture: This”, “epithelium.” for “epithelium (Hilgendorh C, 2000).”
as §4, §5, §6

MUC15 = experiment: as above; type: cell-based, human; conditions: 24 h
Protocol: as §1, §2, §3
as §1, with “This” for “Caco-2:HT-29-MTX 75:25 coculture: This”, “epithelium.” for “epithelium (Hilgendorh C, 2000).”
as §4, §5, §6

MUC16 = experiment: as above; type: cell-based, human; conditions: 24 h
Protocol: as §1, §2, §3
as §1, with “This” for “Caco-2:HT-29-MTX 75:25 coculture: This”, “epithelium.” for “epithelium (Hilgendorh C, 2000).”
as §4, §5, §6

MUC17 = experiment: as above; type: cell-based, human; conditions: 24 h
Protocol: as §1, §2, §3
as §1, with “This” for “Caco-2:HT-29-MTX 75:25 coculture: This”, “epithelium.” for “epithelium (Hilgendorh C, 2000).”
as §4, §5, §6

MUC19 = experiment: as above; type: cell-based, human; conditions: 24 h
Protocol: as §1, §2, §3
as §1, with “This” for “Caco-2:HT-29-MTX 75:25 coculture: This”, “epithelium.” for “epithelium (Hilgendorh C, 2000).”
as §4, §5, §6

MUC1 = experiment: as above; type: cell-based, human; conditions: 24 h
Protocol: as §1, §2, §3
as §1, with “This” for “Caco-2:HT-29-MTX 75:25 coculture: This”, “epithelium.” for “epithelium (Hilgendorh C, 2000).”
as §4, §5, §6

MUC20 = experiment: as above; type: cell-based, human; conditions: 24 h
Protocol: as §1, §2, §3
as §1, with “This” for “Caco-2:HT-29-MTX 75:25 coculture: This”, “epithelium.” for “epithelium (Hilgendorh C, 2000).”
as §4, §5, §6

MUC2 = experiment: as above; type: cell-based, human; conditions: 24 h
Protocol: as §1, §2, §3
as §1, with “This” for “Caco-2:HT-29-MTX 75:25 coculture: This”, “epithelium.” for “epithelium (Hilgendorh C, 2000).”
as §4, §5, §6

MUC3 = experiment: as above; type: cell-based, human; conditions: 24 h
Protocol: as §1, §2, §3
as §1, with “This” for “Caco-2:HT-29-MTX 75:25 coculture: This”, “epithelium.” for “epithelium (Hilgendorh C, 2000).”
as §4, §5, §6

MUC4 = experiment: as above; type: cell-based, human; conditions: 24 h
Protocol: as §1, §2, §3
as §1, with “This” for “Caco-2:HT-29-MTX 75:25 coculture: This”, “epithelium.” for “epithelium (Hilgendorh C, 2000).”
as §4, §5, §6

MUC5AC = experiment: as above; type: cell-based, human; conditions: 24 h
Protocol: as §1, §2, §3
as §1, with “This” for “Caco-2:HT-29-MTX 75:25 coculture: This”, “epithelium.” for “epithelium (Hilgendorh C, 2000).”
as §4, §5, §6

MUC5B = experiment: as above; type: cell-based, human; conditions: 24 h
Protocol: as §1, §2, §3
as §1, with “This” for “Caco-2:HT-29-MTX 75:25 coculture: This”, “epithelium.” for “epithelium (Hilgendorh C, 2000).”
as §4, §5, §6

MUC6 = experiment: as above; type: cell-based, human; conditions: 24 h
Protocol: as §1, §2, §3
as §1, with “This” for “Caco-2:HT-29-MTX 75:25 coculture: This”, “epithelium.” for “epithelium (Hilgendorh C, 2000).”
as §4, §5, §6

MUC7 = experiment: as above; type: cell-based, human; conditions: 24 h
Protocol: as §1, §2, §3
as §1, with “This” for “Caco-2:HT-29-MTX 75:25 coculture: This”, “epithelium.” for “epithelium (Hilgendorh C, 2000).”
as §4, §5, §6

MUC8 = experiment: as above; type: cell-based, human; conditions: 24 h
Protocol: as §1, §2, §3
as §1, with “This” for “Caco-2:HT-29-MTX 75:25 coculture: This”, “epithelium.” for “epithelium (Hilgendorh C, 2000).”
as §4, §5, §6

[1] = tested on: Bacteria (AIEC obtained from IBD and IBS patients); experiment: Observed therapeutic effective dose determined in the in vitro experiments (Table 4); type: cell-based, E. coli; conditions: Not relevant = no anti-attachment or anti-invasive effect on the AIEC
Protocol: (§7) The observed therapeutic effective dose was determined in the in vitro experiments described herein.
(§8) Table 4 summarises the observed therapeutic effective dose for each GaRP formulation component.

Enterocyte = experiment: as above; type: cell-based, human
Protocol: as §7, §8

Macrophage = experiment: as above; type: cell-based, human
Protocol: as §7, §8

TNBS colitis [2] = experiment: TNBS colitis mouse model with and without prednisolone, change in endoscopic score day 3 to day 11 (Example 12); type: in vivo, C56/BL/6 mice
Protocol: Colitis was induced in C56/BL/6 mice and 3 days after disease induction daily treatments commenced.
Mice were induced with colitis by administering TNBS in the same manner as example 11. After three days the lesions were scored by endoscopy and the animals treated with i). 150 mg/kg bromelain in water, ii) 150 mg bromelain and rectally administered threonine/sodium butyrate/vitamin D3, iii). 2 mg/kg oral prednisolone or iv). 150 mg bromelain and rectally administered threonine/sodium butyrate/vitamin D3 plus 2 mg/kg oral prednisolone. Endoscopic scores were measured at day 11 and the change in endoscopic score between day 3 and day 11 calculated (FIG. 16).
Groups are i) placebo, ii) 150 mg bromelain in water orally, iii) 150 mg bromelain & 15 mg/kg menthol orally plus GaRP rectally, iv) 150 mg bromelain & 15 mg/kg menthol orally plus GaRP and 2 mg/kg prednisolone rectally, v) 2 mg/kg prednisolone rectally, and vi) GaRP rectally. GaRP is sodium butyrate 185 mg/kg, threonine 280 mg/kg and Vitamin D3 3.84 micrograms per kg. […] The threonine, sodium butyrate and vitamin D3 were formulated and administered as a rectal gavage at the top of the colon to simulate a formulation which releases in the colon; i.e., to achieve administration to the lower intestine.

TNBS colitis [3] = experiment: Histological scoring of colitis in colon sections post treatment (Example 14); type: in vivo, C56/BL/6 mice; conditions: TNBS colitis mice, 2 mg/kg prednisolone
From the text: Colitis was induced and treated C56/BL/6 mice from examples 11 and 12 were euthanised post treatment and the colons sectioned for histopathological analysis. Each bar represents the mean histopathology score for the treatment groups. Values of the number of animals, means, standard deviations and statistical significance relative to placebo are shown in parentheses.
In this example, the colon was fixed, stained and sectioned before being assessed by microscopy in a blinded manner. Colons were examined not only for active disease but evidence of recovery from disease and scored according to the following criteria. Scoring was performed in triplicate blinded to the scorer with a maximum score of 3 in each of 6 categories.
• Hypervascularization (opening of blood vessels) • Presence of mononuclear cells (architecture also disappear) • Epithelial hyperplasia (elongated crypt and villi) • Epithelial injury (loss of epithelial continuity) • Presence of neutrophils • Lymphoid aggregates (scored 0-2) 0,1-2, >2
Data were collated and analysed by student t test for significance against placebo control.

SMILES: C=C1CC[C@H](O)C/C1=C/C=C1\CCC[C@]2(C)[C@@H]([C@H](C)CCCC(C)C)CC[C@@H]12 [Vitamin D3, Cholecalciferol]
- Effect on MUC gene expression, MUC12 (MUC12; 0.048 μg/ml vitamin D3): No effect
- Effect on MUC gene expression, MUC12 (MUC12; 0.48 μg/ml vitamin D3): No effect
- Effect on MUC gene expression, MUC13: Decreased by (MUC13; 0.048 μg/ml vitamin D3): by 37%
- Effect on MUC gene expression, MUC13: Decreased by (MUC13; 0.48 μg/ml vitamin D3): by 56%
- Effect on MUC gene expression, MUC15 (MUC15; 0.048 μg/ml vitamin D3): No effect
- Effect on MUC gene expression, MUC15 (MUC15; 0.48 μg/ml vitamin D3): No effect
- Effect on MUC gene expression, MUC16 (MUC16; 0.048 μg/ml vitamin D3): No effect
- Effect on MUC gene expression, MUC16 (MUC16; 0.48 μg/ml vitamin D3): No effect
- Effect on MUC gene expression, MUC17: Decreased by (MUC17; 0.048 μg/ml vitamin D3): by 31%
- Effect on MUC gene expression, MUC17: Decreased by (MUC17; 0.48 μg/ml vitamin D3): by 40%
- Effect on MUC gene expression, MUC19 (MUC19; 0.048 μg/ml vitamin D3): No effect
- Effect on MUC gene expression, MUC19 (MUC19; 0.48 μg/ml vitamin D3): No effect
- Effect on MUC gene expression, MUC1: Decreased by (MUC1; 0.048 μg/ml vitamin D3): by 37%
- Effect on MUC gene expression, MUC1: Decreased by (MUC1; 0.48 μg/ml vitamin D3): by 58%
- Effect on MUC gene expression, MUC20: Decreased by (MUC20; 0.048 μg/ml vitamin D3): by 18%
- Effect on MUC gene expression, MUC20: Decreased by (MUC20; 0.48 μg/ml vitamin D3): by 27%
- Effect on MUC gene expression, MUC2 (MUC2; 0.048 μg/ml vitamin D3): No effect
- Effect on MUC gene expression, MUC2 (MUC2; 0.48 μg/ml vitamin D3): No effect
- effect on the expression of MUC2, individually (MUC2; titration, FIGS. 9A & 9B): did not exert a major effect
- Effect on MUC gene expression, MUC3: Decreased by (MUC3; 0.048 μg/ml vitamin D3): by 43%
- Effect on MUC gene expression, MUC3 (MUC3; 0.48 μg/ml vitamin D3): No effect
- Effect on MUC gene expression, MUC4 (MUC4; 0.048 μg/ml vitamin D3): No effect
- Effect on MUC gene expression, MUC4 (MUC4; 0.48 μg/ml vitamin D3): No effect
- Effect on MUC gene expression, MUC5AC: Decreased by (MUC5AC; 0.048 μg/ml vitamin D3): by 42%
- Effect on MUC gene expression, MUC5AC: Decreased by (MUC5AC; 0.48 μg/ml vitamin D3): by 42%
- Effect on MUC gene expression, MUC5B: Decreased by (MUC5B; 0.048 μg/ml vitamin D3): by 56%
- Effect on MUC gene expression, MUC5B: Decreased by (MUC5B; 0.48 μg/ml vitamin D3): by 63%
- Effect on MUC gene expression, MUC6 (MUC6; 0.048 μg/ml vitamin D3): No effect
- Effect on MUC gene expression, MUC6 (MUC6; 0.48 μg/ml vitamin D3): No effect
- Effect on MUC gene expression, MUC7 (MUC7; 0.048 μg/ml vitamin D3): No effect
- Effect on MUC gene expression, MUC7 (MUC7; 0.48 μg/ml vitamin D3): No effect
- effect on the expression of MUC7, individually (MUC7; titration, FIGS. 9A & 9B): did not exert a major effect
- Effect on MUC gene expression, MUC8: Decreased by (MUC8; 0.048 μg/ml vitamin D3): by 30%
- Effect on MUC gene expression, MUC8: Decreased by (MUC8; 0.48 μg/ml vitamin D3): by 50%
- observed therapeutic effective dose, Target cell Bacteria (fg/cell) [1]: Not relevant
- observed therapeutic effective dose, Target cell Enterocyte (pg/cell) (Enterocyte): 0.018 pg/cell
- observed therapeutic effective dose, Target cell Macrophage (pg/cell) (Macrophage): 0.36 pg/cell

SMILES: C[C@]12C=CC(=O)C=C1CC[C@@H]1[C@@H]2[C@@H](O)C[C@@]2(C)[C@H]1CC[C@]2(O)C(=O)CO [prednisolone, Prednisolone]
- Mean reduction in endoscopic score (TNBS colitis [2]; TNBS colitis mice, change day 3 to day 11, 2 mg/kg prednisolone): 4.25
- mean improvement in endoscopic score at day 11 (TNBS colitis [2]; daily treatment from day 3, bromelain 150 mg/kg, menthol 15 mg/kg, prednisolone 2 mg/kg where present, GaRP rectally): 4.25
- Histological score of colitis, Mean (TNBS colitis [3]): 3.5
